Results on 12 compounds are retold here after PubChem BioAssay (NCI).

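Dose response: 5 concentrations. Exposure: 48 h. Format: 96-well plates. Endpoint: linear interpolation; highest concentration if not reached. Abbreviation: GI50, concentration required for 50% inhibition of growth. The concentration for full growth arrest is given as TGI.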

What all share (experiment): DTP human tumour cell line panel, 48 h
Experiment [1] has as its system SR leukemia.
Experiment [2] deals with SK-OV-3 ovarian.
Experiment [3] has as its system CCRF-CEM leukemia.
The subject of experiment [4] is SF-268 CNS.
The test system of experiment [5] is HOP-62 NSCLC.
Experiment [6] concerns NCI/ADR-RES ovarian.
Experiment [7] deals with DU-145 prostate.
Experiment [8] has as its system T-47D breast.
The subject of experiment [9] is MDA-MB-231 breast.
In experiment [10] the test system is MCF7 breast.

`C1=Nc2ccccc2Cn2nncc21`: the TGI in [1], in experiment [2], in experiment [3], in experiment [4] and in experiment [5] was greater than 100 µM each time.

In the case of `OC(c1ccccc1)C1CC2C=CC1C2` (configuration not stated), the TGI in experiment [2], in [3], in experiment [4] and in [5] was greater than 100 µM throughout.

With `O=c1ccc2c(Cl)cccc2o1`, the TGI in experiment [1], in experiment [3], in experiment [4], in [6], in [7] and in experiment [8] was greater than 100 µM each time. Besides, the total growth inhibition concentration (TGI) in experiment [9], in experiment [10] and in experiment [5] was greater than 100 µM in each case.

Regarding `CCN(CC)CCCC(C)Nc1c2ccc(Cl)cc2nc2cc(Cl)ccc12` (configuration not stated), the total growth inhibition concentration (TGI) (as a rule, the concentration at which net growth stops) in experiment [2] stood at 21.9 µM; in experiment [3] it was 7.47 µM; in experiment [4], 16.3 µM; in experiment [10] it was 9.49 µM; in [5], 22.1 µM.

`Clc1ccc(C2CC(c3cccc(Nc4ccncc4)c3)=NN2c2ccccc2)cc1` (configuration not stated): the GI50 (as a rule, the concentration at which growth is held to half of that of the control) was 2.57 µM in experiment [2]; 1.94 µM in experiment [3]; 1.87 µM in experiment [4]; 1.73 µM in experiment [7]; 2.1 µM in [8]; 1.7 µM in experiment [9]. For the same compound, the GI50 was 1.65 µM in [10] and 2.31 µM in experiment [5]. The TGI turned out to be 7.33 µM in [2]; 5.41 µM in experiment [3]; 3.84 µM in [4]; 3.27 µM in experiment [7]; 4.86 µM in experiment [8]; 3.21 µM in [9]. Also, the TGI was found to be 3.44 µM in experiment [10] and 5.15 µM in experiment [5].

As to `CC(C(=O)NCCNC(=O)CCCC(=O)N(C)O)C(=O)NCCNC(=O)CCCC(=O)N(C)O`, the TGI in experiment [1], in experiment [2], in experiment [3], in [4], in experiment [6] and in [7] was greater than 100 µM each time. Besides, the TGI in experiment [8], in experiment [9], in experiment [10] and in [5] was greater than 100 µM in each case.

As for `COc1ccc(N2C(=O)C(=O)N(C)C2=O)c2ccccc12`, the TGI in experiment [1], in [2], in [3], in [4], in experiment [6] and in [7] was greater than 10 µM each time. Also, the TGI in experiment [8], in experiment [9], in experiment [10] and in experiment [5] was greater than 10 µM each time.

With `CSC1=C(SC)C(=O)c2cn(C)c(=O)cc2C1=O`, the TGI in experiment [2] was 31.3 µM; in [3], 0.826 µM; in [4] it was 17 µM; in experiment [6] it was greater than 100 µM; in experiment [7], 21 µM; in [8], 3.99 µM. Also, the figures for the TGI in [9], in experiment [10] and in experiment [5] were 3.7 µM, 4.49 µM and 24.8 µM, respectively.

`Fc1ccc(Nc2ncc(-c3cc(F)c(Cl)cc3Cl)s2)cc1Cl`: the GI50 was 90.8 µM in experiment [2]; 5.63 µM in experiment [4]; 17.7 µM in [6]; 9.01 µM in [7]; greater than 100 µM in [8]; 2.15 µM in experiment [9]. The GI50 in [5] is 9.43 µM. Moreover, the TGI was greater than 100 µM in [2]; 20.3 µM in experiment [4]; 32.5 µM in experiment [6]; 30.8 µM in [7]; greater than 100 µM in [8]; 6.87 µM in experiment [9]. In addition, the TGI stood at 2.48 µM in [10] and 21.8 µM in experiment [5].

In the case of `CC1(CO)C(O)CCC2(C)C1C(O)CC1CC3CC12CCC3(O)CO` (configuration not stated), the TGI in experiment [2], in [3], in experiment [4], in [6], in experiment [10] and in experiment [5] was greater than 225 µM each time.

In the case of `COC1=CC(=O)c2c(c(COC(C)=O)cn2C)C1=O`, the TGI in experiment [1] came out at 0.545 µM; in experiment [2], 0.677 µM; in [3], 0.71 µM; in experiment [4] it was 0.808 µM; in experiment [6] it was 0.295 µM; in experiment [7] it was 0.247 µM. For the same compound, the TGI in [8] was 3.67 µM; in experiment [9], 1.08 µM; in [10], 2.5 µM.

Turning to `CC(C)NC(=O)OCc1nnn2c1CCC2`, the TGI in experiment [1], in experiment [2], in experiment [3] and in experiment [5] was greater than 100 µM throughout.
